In data set [1] the test system is 293T7 cells (human kidney embryonal fibroblasts). Kind of data set: Transfection of 293T7 cells with luciferase plasmid/liposome complexes. The class given is cell-based. To be noted: for transfection efficiency when associated with co-lipids 2c or 7b compared with DOPE: 293T line cells, tests considered as a whole; for observed luminescence values: 293T cells; for efficiency gain as compared to DOPE: value in brackets. On the procedure:
A lipid film was prepared in a sterile flask under nitrogen by dry evaporating 1 mL of a 10.8 mM cationic lipid or a mixture of a cationic lipid/neutral lipid (molar ratio 1:1) in ethanol. The film was then hydrated with 1 mL of 10 mM HEPES buffer, pH 7.4, the solution was vigorously stirred for 3 min, then allowed to rest at 4° C. After 2 h, the solution was sonicated for 15 min in an ultrasonic bath at 37 kHz (Bioblock ultrasonic bath, Bioblock Scientific, Illkirch, France).
18 μl of a solution of liposomes at 5.4 mM were diluted in 200 μl of 10 mM HEPES buffer, pH 7.4. After 15 min, 7.5 μg of a plasmid encoding the gene of the luciferase (pTG11033; 9514 bp, Transgene S. A., Strasbourg, France) in 20 μl of 10 mM HEPES buffer, pH 7.4, were added to the liposomes and the mixture was allowed to rest for 30 min. The solution comprising the DNA/liposome complexes was adjusted to 1.5 ml with some culture medium free of serum and at 0.15M NaCl with a solution of 5M NaCl.
Two days before transfection, 293T7 cells (human kidney embryonal fibroblasts) were seeded with 1×10^5 cells in 1 mL of a culture medium in a 24-well plate. The day of the transfection, cells achieved 80% confluence. Cells were washed twice with some medium free of serum prior to adding 2.5 μg of DNA in the form of DNA/liposome complexes. After 4 h of incubation at 37° C., the medium was removed and cells were cultured for 48 h with complete culture medium.
The culture medium of the cells was removed and each well was rinsed with 500 μL of PBS. Cell detachment was obtained with 500 μL of the PBS+trypsin per well for 5 min at 37° C. The cell suspension was then centrifuged for 5 min at 250×g (1500 rpm) at 20° C. 400 μL of lysis buffers (CCLR, Promega) were added on the cell pellet, which was allowed to incubate onto ice for 15 min. After Vortex-stirring, centrifugation was effected at 12 000×g for 2 min at 4° C. The luciferase activity contained in 20 μL of supernatant was measured using a luminometer (Bertold Lumat LB 9501) for 10 seconds after injection of 100 μL of luciferin (Luciferase Assay Reagent, Promega). The light transmitted was converted to arbitrary units relative to the protein amount in the sample determined through the bicinchoninic acid method.
The protein amount in the lysate was evaluated through the BCA method (H. Hill and G. Straka, 1998). Proteins were contacted with bicinchoninic acid (BCA) and copper ions in an alkaline medium. The copper ions resulting from the protein-mediated reduction thereof formed stable, colored complexes with BCA. Coloration is objectified through spectrophotometric determination (562 nm). Once a standard range was obtained using bovine serum albumin, the weight of protein contained in the cell lysates was calculated.

For data set [2] the following is noted: basic side chain / imidazole ring; cited from earlier work.
Data set [3] is described as follows: pKa of basic side chain / imidazole ring. The format is physicochemical.
Where [4] appears, read: co-lipid 2c (molar ratio 1:1), 48 h after transfection.
Setting [5] is: co-lipid 7b (molar ratio 1:1), 48 h after transfection.
Where [6] appears, read: co-lipid DOPE (molar ratio 1:1), 48 h after transfection.
[7] abbreviates: no co-lipid (—), luciferase plasmid pTG11033, 48 h after transfection.

On to “lysine methyl ester dioleoyl-N-phosphoramidate [compound 4]”, for which the “transfection efficiency when associated with co-lipids 2c or 7b compared with DOPE” value (“transfection efficiency … compared with DOPE” for short) in data set [1] is listed as “more efficient”. In addition, the observed luminescence values is recorded as 5.10^7 TRLU in data set [1] (setting [4]), 4.10^7 TRLU in data set [1] (setting [5]), 3.10^7 TRLU in data set [1] (setting [6]) and 2.10^7 TRLU in data set [1] (setting [7]). The “efficiency gain as compared to DOPE” value was determined as 1.6 in data set [1] (co-lipid 2c) and 1.3 in data set [1] (co-lipid 7b).
`N=C(N)NCCCC[C@H](N)C(=O)O` [Homoarginine]: the pKa in data set [2] was 12.5.
In the case of `COC(=O)[C@@H](N)CCCNC(=N)N` [arginine methyl ester], the pKa in data set [2] is recorded as 12.48.
Take “arginine methyl ester dioleoyl-N-phosphoramidate [3a]”: in data set [1], the “transfection efficiency … compared with DOPE” value is on record as “more efficient”. Further, the observed luminescence values in data set [1] (setting [4]) is on record as 5.10^8 TRLU; in data set [1] (setting [5]), 10^6 TRLU; in data set [1] (setting [6]) it was 5.10^6 TRLU; in data set [1] (setting [7]), 7.10^6 TRLU. Besides, the “efficiency gain as compared to DOPE” value in data set [1] (co-lipid 2c) stood at 100; in data set [1] (co-lipid 7b), 0.2.
On to `c1c[nH]cn1` [imidazole], for which the pKa result in data set [2] was “about 6”.
Turning to “homoarginine methyl ester dioleoyl-N-phosphoramidate [3b]”, the “transfection efficiency … compared with DOPE” value in data set [1] is listed as “more efficient”. For the same compound, the observed luminescence values in data set [1] (setting [4]) is recorded as 3.10^9 TRLU; in data set [1] (setting [5]), 3.10^7 TRLU; in data set [1] (setting [6]) it was 3.10^6 TRLU; in data set [1] (setting [7]), 9.10^6 TRLU. The “efficiency gain as compared to DOPE” value in data set [1] (co-lipid 2c) was found to be 1000; in data set [1] (co-lipid 7b), 10.
As to `N[C@@H](Cc1c[nH]cn1)C(=O)O` [histidine], the “imidazole ring protonated at a physiological pH” value in data set [3] was “about 5%”.
For `COC(=O)[C@@H](N)CCCCN` [lysine methyl ester], the pKa in data set [2] is 10.57.

Broadly, the pKa is the negative logarithm of the acid dissociation constant.
